Source: US9422240B2, “Partially saturated nitrogen-containing heterocyclic compound” (TAISHO PHARMACEUTICAL CO., LTD, priority 2012, dated 2016)

What was measured:
human PHD2 [1] = target: T1, human PHD2 (Homo sapiens (Human), UniProt Q9GZT9); experiment: Test 2: human PHD2 inhibitory activity, fluorescence polarization assay of HIF-1α peptide proline hydroxylation; format: biochemical; details: test compound's concentration 1 μM; Test 2, fluorescence polarization assay; read-out: Percent inhibition (% at 1 μM)
Procedure, shortened: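 Enzyme from lysate of cells expressing human PHD2 (NM_022051), 40 ng/well, added to compound and 19-residue HIF-1α peptide substrate; 20 min at 30° C., EDTA quench. Prolyl hydroxylation detected by HIF-OH antibody binding via fluorescence polarization; inhibition relative to compound-free wells.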

human PHD2 [2] = target: T1, human PHD2; experiment: Test 1: human PHD2 inhibitory activity, [14C]-2-oxoglutarate to [14C]-succinic acid radiometric assay with HIF-1α peptide; format: biochemical; details: test compound's concentration 1 μM; Test 1, [14C]-2-oxoglutarate radiometric assay; read-out: Percent inhibition (% at 1 μM)
Procedure: (1) Expression and Preparation of Human PHD2
Human PHD2 was expressed in insect cells (HighFive cells). A registered sequence of human PHD2 (NM_022051) was introduced into the pFastBacl vector (Invitrogen), and the sequence was verified. The vector was introduced into Sf9 insect cells (Invitrogen) to acquire human PHD2 baculovirus. HighFive insect cells (Invitrogen) were infected with this recombinant virus and cultured at 27° C. for 72 hours; thereafter, a cell lysis solution containing various protease inhibitors was added and the cells were disrupted to form a suspension. The suspension of disrupted cells was centrifuged at 4° C. and 100,000×g for 30 minutes and the supernatant was recovered as a cell lysate.
(2) Measurement of Human PHD2 Inhibitory Activity
The activity of human PHD2 enzyme was measured with a substrate which is a 19-residue partial peptide based on the sequence of HIF-1α. Specifically, the conversion of 2-oxoglutarate to succinic acid which would occur simultaneously with the hydroxylation of a proline residue in the peptide with the PHD2 enzyme was utilized. To be more specific, [^14C]-2-oxogiutarate was added to the reaction system to initiate an enzymatic reaction and the [^14C]-2-oxoglutarate remaining after the reaction was bound to 2,4-dinitrophenylhydrazine (DNPH), with the resulting precipitate being removed by passage through a filter. Subsequently, radiation counting was conducted on the resulting [^14C]-succinic acid.
A test compound, HIF-1αpeptide and [^14C]-2-oxoglutarate were preliminarily added onto 96-well plates and reaction was initiated by adding a human PHD2 enzyme solution (4 μg/well). After 15-min incubation at 37° C., a DNPH-containing quench solution was added and the mixture was allowed to stand at room temperature for 30 minutes. Thereafter, an excess of non-radiolabelled 2-oxoglutarate was added and the mixture was allowed to stand at room temperature for 60 minutes. The resulting precipitate was removed by passage through a filter and the radiation count on the [^14C]-succinic acid was quantified (with MicroBeta). Radiation counting was conducted for each well and the human PHD2 inhibitory activity of each test compound was calculated on the basis of the values for the substrate-free group and the test compound-free group.

T1 sequence (Q9GZT9 whole entry): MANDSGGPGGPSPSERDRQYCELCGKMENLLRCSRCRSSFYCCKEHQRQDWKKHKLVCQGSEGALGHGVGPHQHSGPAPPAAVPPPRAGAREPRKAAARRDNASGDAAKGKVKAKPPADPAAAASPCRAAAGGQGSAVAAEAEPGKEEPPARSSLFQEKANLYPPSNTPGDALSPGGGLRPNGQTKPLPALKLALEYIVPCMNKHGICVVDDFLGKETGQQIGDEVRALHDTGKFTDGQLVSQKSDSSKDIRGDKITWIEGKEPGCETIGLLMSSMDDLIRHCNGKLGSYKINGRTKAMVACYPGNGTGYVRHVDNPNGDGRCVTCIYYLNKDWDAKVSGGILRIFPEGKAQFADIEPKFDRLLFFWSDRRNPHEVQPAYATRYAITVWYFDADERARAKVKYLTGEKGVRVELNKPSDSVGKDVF

Structure (SMILES): O=C(O)CNC(=O)C1=C(O)C2(CCOCC2)CN(Cc2ccc(-c3ccc(C(F)(F)F)cc3)cc2)C1=O [Ex. 1-119]
- inhibition at 1 µM (human PHD2 [1]): 84%
- inhibition at 1 µM (human PHD2 [2]): 85%

Structure (SMILES): O=C(O)CNC(=O)C1=C(O)CCN(Cc2ccc(C(F)(F)F)c(C(F)(F)F)c2)C1=O [Ex. 1-120]
- inhibition at 1 µM (human PHD2 [1]): 82%
- inhibition at 1 µM (human PHD2 [2]): 69%

Structure (SMILES): Cc1ccc(CN2C(=O)C(C(=O)NCC(=O)O)=C(O)CC23CCC3)cc1 [Ex. 1-121]
- inhibition at 1 µM (human PHD2 [1]): 71%
- inhibition at 1 µM (human PHD2 [2]): 66%

Structure (SMILES): O=C(O)CNC(=O)C1=C(O)CC2(CCC2)N(Cc2ccc(C(F)(F)F)cc2)C1=O [Ex. 1-122]
- inhibition at 1 µM (human PHD2 [1]): 76%
- inhibition at 1 µM (human PHD2 [2]): 65%

Structure (SMILES): O=C(O)CNC(=O)C1=C(O)CC2(COC2)N(Cc2cnc(-c3ccccc3)s2)C1=O [Ex. 1-123]
- inhibition at 1 µM (human PHD2 [1]): 93%
- inhibition at 1 µM (human PHD2 [2]): 90%

Structure (SMILES): O=C(O)CNC(=O)C1=C(O)CC2(COC2)N(Cc2ccc(C(F)(F)F)cc2)C1=O [Ex. 1-124]
- inhibition at 1 µM (human PHD2 [1]): 79%
- inhibition at 1 µM (human PHD2 [2]): 72%

Structure (SMILES): O=C(O)CNC(=O)C1=C(O)CCN(Cc2ccc(-c3ccccc3)c(F)c2)C1=O [Ex. 1-125]
- inhibition at 1 µM (human PHD2 [1]): 97%
- inhibition at 1 µM (human PHD2 [2]): 98%

Structure (SMILES): O=C(O)CNC(=O)C1=C(O)CCN(Cc2ccc(-c3ccc(F)cc3)cc2F)C1=O [Ex. 1-126]
- inhibition at 1 µM (human PHD2 [1]): 98%
- inhibition at 1 µM (human PHD2 [2]): 97%

Structure (SMILES): O=C(O)CNC(=O)C1=C(O)CCN(Cc2ccc(-c3ccccc3)cc2F)C1=O [Ex. 1-127]
- inhibition at 1 µM (human PHD2 [1]): 95%
- inhibition at 1 µM (human PHD2 [2]): 92%

Structure (SMILES): O=C(O)CNC(=O)C1=C(O)CCN(Cc2ccc(C(F)(F)F)c(Cl)c2)C1=O [Ex. 1-128]
- inhibition at 1 µM (human PHD2 [1]): 84%
- inhibition at 1 µM (human PHD2 [2]): 88%

Structure (SMILES): Cc1ccc(CN2CCC(O)=C(C(=O)NCC(=O)O)C2=O)cc1C(F)(F)F [Ex. 1-129]
- inhibition at 1 µM (human PHD2 [1]): 80%
- inhibition at 1 µM (human PHD2 [2]): 71%

Structure (SMILES): O=C(O)CNC(=O)C1=C(O)CC2(CCC2)N(Cc2ccc(-c3ccccn3)cc2)C1=O [Ex. 1-130]
- inhibition at 1 µM (human PHD2 [1]): 90%
- inhibition at 1 µM (human PHD2 [2]): 89%

Structure (SMILES): O=C(O)CNC(=O)C1=C(O)CC2(CCC2)N(Cc2cnc(-c3ccccc3)s2)C1=O [Ex. 1-131]
- inhibition at 1 µM (human PHD2 [1]): 96%
- inhibition at 1 µM (human PHD2 [2]): 93%

Structure (SMILES): O=C(O)CNC(=O)C1=C(O)CC2(COC2)N(CC2CCC(c3ccccc3)CC2)C1=O (centres unmarked) [Ex. 1-132]
- inhibition at 1 µM (human PHD2 [1]): 94%
- inhibition at 1 µM (human PHD2 [2]): 103%

Structure (SMILES): O=C(O)CNC(=O)C1=C(O)CC2(COC2)N(Cc2ccc(-c3ccc(C(F)(F)F)cc3)cc2)C1=O [Ex. 1-133]
- inhibition at 1 µM (human PHD2 [1]): 97%
- inhibition at 1 µM (human PHD2 [2]): 104%

Structure (SMILES): O=C(O)CNC(=O)C1=C(O)CCN(Cc2ccc(C(F)(F)F)c(F)c2F)C1=O [Ex. 1-134]
- inhibition at 1 µM (human PHD2 [1]): 85%
- inhibition at 1 µM (human PHD2 [2]): 86%

Structure (SMILES): O=C(O)CNC(=O)C1=C(O)CCN(Cc2c(F)cc(C(F)(F)F)cc2F)C1=O [Ex. 1-135]
- inhibition at 1 µM (human PHD2 [1]): 78%
- inhibition at 1 µM (human PHD2 [2]): 78%

Structure (SMILES): O=C(O)CNC(=O)C1=C(O)CCN(Cc2ccc(OC(F)(F)C(F)F)cc2)C1=O [Ex. 1-136]
- inhibition at 1 µM (human PHD2 [1]): 88%
- inhibition at 1 µM (human PHD2 [2]): 91%

Structure (SMILES): O=C(O)CNC(=O)C1=C(O)CC2(CCC2)N(CC2CCC(c3ccccc3)CC2)C1=O (centres unmarked) [Ex. 1-137]
- inhibition at 1 µM (human PHD2 [1]): 92%
- inhibition at 1 µM (human PHD2 [2]): 78%

Structure (SMILES): CC(C)(C)c1ccc(-c2ccc(CN3C(=O)C(C(=O)NCC(=O)O)=C(O)CC34COC4)cc2)cc1 [Ex. 1-138]
- inhibition at 1 µM (human PHD2 [1]): 97%
- inhibition at 1 µM (human PHD2 [2]): 83%

Structure (SMILES): O=C(O)CNC(=O)C1=C(O)CCN(Cc2ccc(F)cc2)C1=O [Ex. 1-139]
- inhibition at 1 µM (human PHD2 [1]): 78%
- inhibition at 1 µM (human PHD2 [2]): 72%

Structure (SMILES): O=C(O)CNC(=O)C1=C(O)CCN(Cc2ccc(C(F)(F)C(F)(F)F)cc2)C1=O [Ex. 1-140]
- inhibition at 1 µM (human PHD2 [1]): 85%
- inhibition at 1 µM (human PHD2 [2]): 79%

Structure (SMILES): O=C(O)CNC(=O)C1=C(O)CC2(CCCCC2)N(Cc2ccc(C(F)(F)F)nc2)C1=O [Ex. 1-141]
- inhibition at 1 µM (human PHD2 [1]): 62%
- inhibition at 1 µM (human PHD2 [2]): 64%

Structure (SMILES): O=C(O)CNC(=O)C1=C(O)CC2(CCCCC2)N(Cc2ccc(C(F)(F)F)cn2)C1=O [Ex. 1-142]
- inhibition at 1 µM (human PHD2 [1]): 52%
- inhibition at 1 µM (human PHD2 [2]): 54%

Structure (SMILES): O=C(O)CNC(=O)C1=C(O)C2CCCCC2N(Cc2ccc(C(F)(F)F)cc2)C1=O (centres unmarked) [Ex. 1-143]
- inhibition at 1 µM (human PHD2 [1]): 65%
- inhibition at 1 µM (human PHD2 [2]): 41%
